Experimental findings from paper PMC9784828, “Antimicrobial Activity of Peptide-Coupled Antisense Peptide Nucleic Acids in Streptococcus pneumoniae” (Microbiology Spectrum, 2022) are described below.

Assay [1] deals with G. mellonella larvae infected with S. pneumoniae TIGR4. Nature of the assay: G. mellonella infection model, larval survival. The class given is in vivo, Galleria mellonella. The conditions noted are these: 7 days; for Survival of infected larvae: 30 min postinfection, mock 19%, n = 40. The procedure:
Antimicrobial efficiency of CPP-antisense PNA conjugates was evaluated in vivo employing a G. mellonella infection and treatment model ([22], [28]). Larvae were infected with S. pneumoniae strain TIGR4 and subsequently treated with 10 nmol CPP-anti-gyrA PNAs. Treatment with levofloxacin served as a positive control. Larval survival was observed over 7 days.
Larvae of the greater wax moth (G. mellonella) were obtained from Bugs-International GmbH (Irsingen/Unterfeld, Germany). For infection experiments, S. pneumoniae TIGR4 was grown for 7 h in BHI, washed twice in a 0.9% NaCl solution, and suspended in 0.9% NaCl to a final concentration of approximately 1 × 10^8 CFU/mL. Larvae weighing 150 to 200 mg were infected with 1 × 10^6 to 3 × 10^6 CFU/larva. Bacteria were injected into the hemocoel of the larvae between the last two pairs of prolegs using a microapplicator (World Precision Instruments, LLC, Sarasota, FL) and a fine-dosage syringe (Omnican-F, 0.01 to 1 mL, 0.30 × 12 mm; B. Braun AG, Melsungen, Germany). As mock control, 0.9% NaCl (PNA experiment) or 0.9% NaCl/3% DMSO (levofloxacin experiment) was injected. For CPP-PNA treatment, larvae were injected 30 min postinfection with 10 nmol CPP-PNA/larva. For levofloxacin treatment, larvae were injected 30 min postinfection with 1 or 10 μg levofloxacin/larva. Larvae were incubated for 7 days, and survival was monitored daily ([22]).

Assay [2] has the same test system. As to the kind of experiment: G. mellonella infection model, bacterial load. It counts as in vivo, Galleria mellonella. The conditions noted are these: 24 h postinfection. The procedure: To establish the antibacterial effect of PNAs in the invertebrate infection model, we assessed the bacterial loads in infected larvae (Fig. 6). Larvae were infected and subsequently treated with NaCl (mock), 10 nmol CPP-PNA, or levofloxacin (positive control), respectively. From each group, four larvae were homogenized at 24 h postinfection. CFU/larva were determined following serial dilutions of the suspension and plating on selective medium. Treatment with (RXR)4XB-anti-gyrA caused a log CFU reduction of 1 compared to that in the mock-treated larvae. The addition of 1 or 10 μg levofloxacin led to a log CFU reduction of 2 or 6, respectively.
For determination of bacterial load, larvae were infected and subsequently treated with NaCl (mock), CPP-PNAs, or levofloxacin (positive control). At 24 h after infection, larvae were homogenized. Following serial dilution, the suspension was plated on selective medium (BD Columbia CNA Agar with 5% sheep blood; Becton Dickinson GmbH, Heidelberg, Germany). Agar plates were incubated overnight at 37°C, 5% CO2. CFU/larva was determined by visual inspection. Colony identity was verified on a random basis by colony PCR using ply-specific primers.

The subject of assay [3] is Detroit 562 cells infected with S. pneumoniae TIGR4. As to the kind of experiment: Cell-based infection model, bacterial CFU. On the set-up: species or system Streptococcus pneumoniae. To be noted: MOI 5, 3 h at 37°C, n = 3. How it is done:
Detroit 562 human pharyngeal epithelial cells were infected with S. pneumoniae TIGR4 at a multiplicity of infection (MOI) of 5. Cells were treated with 20 μM (RXR)4XB-anti-gyrA PNA or scrambled control PNA, respectively. As a positive control, 1 μg levofloxacin, corresponding to 3× MIC, was added. Following incubation for 3 h at 37°C, bacterial CFU counts were determined for CPP-antisense PNA-treated samples and compared to those in nontreated samples and in samples containing scrambled control PNAs (Fig. 4A). Treatment with (RXR)4XB-anti-gyrA caused a log CFU reduction of 1. Addition of levofloxacin led to a log CFU reduction of 2.
The human pharynx carcinoma epithelial cell line Detroit 562 (ATCC CCL138) was cultivated in Dulbecco’s modified Eagle medium (DMEM)/F12 (1:1) (Thermo Fisher Scientific, Schwerte, Germany) supplemented with 10% fetal bovine serum at 37°C and 5% CO2. Confluent Detroit 562 cells were infected with S. pneumoniae TIGR4 at an MOI of 5. Cultures were treated with 20 μM CPP-PNAs or 1 μg levofloxacin, respectively, and incubated for 3 h at 37°C, 5% CO2. After incubation, the supernatant was collected. Adherent cells were detached with Accutase solution (Merck KGaA, Darmstadt, Germany), collected by centrifugation for 10 min at 4,000 × g, and combined with the supernatant. Cells were pelleted by centrifugation, washed twice with PBS, and suspended in PBS. CFU/well was determined following serial dilution and plating on Todd Hewitt Broth, supplemented with Yeast, (THY) agar plates.

Assay [4] deals with S. pneumoniae TIGR4. As to the kind of experiment: Bacterial killing assay (CFU/mL reduction after 6 h). The class given is cell-based, Streptococcus pneumoniae. To be noted: TIGR4. How it is done:
The impact of different CPPs on the efficacy of antisense PNAs targeting gyrA and rpoB in S. pneumoniae was tested using an in vitro killing assay ([25]). S. pneumoniae strains were incubated for 6 h with CPP-antisense PNA conjugates. We determined the reduction of bacterial CFU/mL caused by different CPP-coupled antisense PNA constructs compared to an untreated control. Three different CPPs were tested: HIV-1 TAT (TAT), oligolysin (K8), and (RXR)4XB (Table 1). Concentration-dependent bactericidal activity was investigated by treatment of S. pneumoniae TIGR4 in a CPP-antisense PNA conjugate concentration range of 2.5 to 20 μM (Fig. 1).
After culturing S. pneumoniae strains in BHI, D39 and 19F were diluted to approximately 10^5 CFU/mL in phosphate-buffered saline (PBS):BHI (93%:7%), while TIGR4 was diluted to approximately 10^5 CFU/mL in PBS:BHI (96%:4%). Next, 450-μL volumes of the respective bacterial suspensions, containing approximately 0.5× 10^5 CFU, were transferred to 2-mL reaction tubes. A 50-μL volume of PNA solution was added to a final PNA concentration of 1 to 20 μM or as indicated. Fifty μL H2O served as a mock control. The reaction tubes were incubated for 6 h at 37°C and 7 rpm (Rotor SB3; Stuart, Staffordshire, United Kingdom). The concentration of CPP-PNA that reduced CFU/mL by 50% after 6 h of incubation compared to an untreated control (IC50) was calculated by nonlinear regression analysis using GraphPad Prism software (GraphPad Software, San Diego, CA).

In assay [5] the test system is S. pneumoniae TIGR4. As to the kind of experiment: In vitro time-killing assay (killing kinetics). The class given is cell-based, Streptococcus pneumoniae. To be noted: 10 μM, samples every 2 h up to 12 h, n = 3. The procedure:
The antimicrobial activity kinetics of TAT- and (RXR)4XB-conjugated anti-gyrA PNA constructs in S. pneumoniae TIGR4 were studied using an in vitro time-killing assay. Bacteria were treated with 10 μM CPP-antisense PNAs or scrambled control PNAs (Fig. 2). Samples were collected every 2 h following antisense treatment. CFU/mL was determined by plating of serial dilutions and plotted over time. […] In contrast, (RXR)4XB-conjugated anti-gyrA PNA treatment led to a continuous reduction in S. pneumoniae CFU until complete eradication after 12 h.
For monitoring of killing kinetics, samples were collected 2 to 12 h post-treatment. Viable cell counts were determined by plating appropriate dilutions on BHI agar plates. CFU were determined by visual inspection following overnight incubation at 37°C under a 5% CO2 atmosphere. At time point 0, the viable cell count corresponded to 1 × 10^5 to 3 × 10^5 CFU/mL.

With `C[C@H]1COc2c(N3CCN(C)CC3)c(F)cc3c(=O)c(C(=O)O)cn1c23` [levofloxacin, reference compound], the “Survival of infected larvae” value in assay [1] (1 μg levofloxacin/larva (approx. 2.5× MIC)) amounted to 40%; in assay [1] (10 μg levofloxacin/larva (approx. 25× MIC)), 74%. In assay [1] (1 μg levofloxacin/larva), the “Increase of survival rate” value was 21%. Moreover, the entries for the “log CFU reduction of bacterial load compared to mock-treated larvae” value in assay [2] (1 μg levofloxacin) and in assay [2] (10 μg levofloxacin) were 2 and 6, respectively. For the same compound, in assay [3] (1 μg levofloxacin, corresponding to 3× MIC), the “log CFU reduction in infected Detroit 562 cells” value worked out at 2.
On to “KKKKKKKK-eg-tgcattaata [K8-anti-gyrA PNA, Oligolysin (K8) coupled to antisense PNA against gyrA]”, for which the “Reduction of bacterial CFU/mL compared to untreated control (in words)” value in the assay with S. pneumoniae TIGR4 [4] (6 h, concentration range 2.5 to 20 μM, n = 5) is “no reduction of CFU/mL”.
Take “RXRRXRRXRRXRXB-eg-aatgattact [(RXR)4XB-anti-gyrA scPNA, (RXR)4XB-coupled scrambled control PNA for anti-gyrA]”: the “Bacterial counts over time (in words)” value in the assay with S. pneumoniae TIGR4 [5] is “did not cause reduced bacterial counts”. Besides, the “log CFU reduction of bacterial load compared to mock-treated larvae” value in assay [2] (10 nmol CPP-PNA/larva, n = 4 larvae per group, three experiments) is on record as “no significant changes in the bacterial CFU”. Moreover, in assay [3] (20 μM CPP-PNA), the “log CFU reduction in infected Detroit 562 cells” value is “No significant changes in bacterial CFU”.
For “TAT: unconjugated cell-penetrating peptide HIV-1 TAT (48–57) (GRKKRRQRRR; UniProt P04608 48-57, looked up, fragment) [reference compound]”, the “Antibacterial effects of unconjugated CPP (in words)” value with S. pneumoniae TIGR4 [4] (Fig. S3) is “higher than those of the conjugated peptides”.
